Laboratory results from patent US20240067693A1, “POLYPEPTIDES AND USES THEREOF” (MEDIMMUNE LIMITED, priority 2020, published 2024).
Numbered stars: 1 amine (or outer) side, 2 acyl side, 3 side chain; on linkers, the order of the positions; unused ones are H or OH. Bridge positions count the residues as written; N and C are the ends. Square brackets hold non-standard residues; d marks the D form. Side chains are listed from the residue outwards. Peptide text beside a SMILES is read from it. * marks the point of attachment. C18 diacid = O=C(O)CCCCCCCCCCCCCCCCC(=O)*; γGlu = O=C(O)[C@H](CCC(=O)[*:2])N[*:1]; αMeF = C[C@](N)(Cc1ccccc1)C(=O)O; Dab = NCC[C@H](N)C(=O)O; Aib = CC(C)(N)C(=O)O

Experiments:
[1] = molecular target: T1, human amylin receptor (calcitonin receptor co-expressed with receptor activity modifying protein, RAMP3) (hAMYR3) (Homo sapiens, UniProt O60896+P30988); test: cAMP production in 1321N1 cells with stable recombinant expression of human amylin receptor (hAMYR3); type: cell-based; conditions: for Ratio (selectivity hAMYR vs hCTR, ratio of EC50 values at the two receptors): EC50 hCTR / EC50 hAMYR3; for EC50: cAMP, 1321N1 cells, assay buffer with 0.1% BSA, read-out: EC50 (pM) hAMYR3
T1 construct: expressed in transfected cells
T1 sequence (P30988 25-474): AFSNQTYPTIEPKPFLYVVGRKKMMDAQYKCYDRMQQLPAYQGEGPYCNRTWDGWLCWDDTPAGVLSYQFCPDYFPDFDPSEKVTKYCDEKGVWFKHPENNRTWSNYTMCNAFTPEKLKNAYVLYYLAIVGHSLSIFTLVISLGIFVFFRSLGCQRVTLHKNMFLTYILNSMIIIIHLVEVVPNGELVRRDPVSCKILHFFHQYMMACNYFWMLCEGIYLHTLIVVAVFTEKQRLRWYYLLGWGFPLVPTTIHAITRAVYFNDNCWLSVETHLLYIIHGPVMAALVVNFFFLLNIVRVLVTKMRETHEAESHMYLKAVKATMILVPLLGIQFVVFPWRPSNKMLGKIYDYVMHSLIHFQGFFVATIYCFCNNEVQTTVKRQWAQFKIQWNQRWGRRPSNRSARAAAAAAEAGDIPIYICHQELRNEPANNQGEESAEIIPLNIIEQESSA
T1 sequence (O60896 24-148 partner): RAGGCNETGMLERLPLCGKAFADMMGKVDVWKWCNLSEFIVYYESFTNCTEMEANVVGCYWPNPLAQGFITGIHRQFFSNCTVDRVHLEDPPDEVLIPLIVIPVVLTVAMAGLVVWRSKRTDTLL
Summary of the method: (§1)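 Receptor-expressing cells (human receptors in 1321N1, rat receptors in HEK) incubated 30 min at room temperature with peptide in HBSS/HEPES pH 7.4, 0.1% BSA, 0.5 mM IBMX. cAMP read by HTRF; EC50 from 4-parameter fit as % of maximal amylin or calcitonin response.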

[2] = Thioflavin T fibrillation assay; type: physicochemical; conditions: ThT fibrillation assay; peptide 1 mg/mL in 25 mM sodium acetate buffer pH 4.0; 6 days at 37 °C with shaking; >144 h = no increase
Source text: Peptide aggregation that form fibrils is an indication of physical instability. Fibril formation in solution poses a significant risk for the stability of injectable peptide drug products. Thioflavin T (ThT) fibrillation assay is a useful tool to assess the aggregation kinetics of a peptide or protein under accelerated and stressed conditions that can be used to forecast the long-term viability of a compound in solution. ThT can selectively bind amyloid fibrils and the resultant complex emits strong fluorescence signal at 482 nm when excited at 450 nm (Anal Biochem. 1989 Mar;177(2):244-9). Monitoring of the change in fluorescence signal is an established method to study the fibril forming potential of peptides and proteins. ThT (purchased from Sigma Aldrich) stock solution is prepared by dissolving the ThT powder in Milli-Q water and filtered to obtain a 0.25 mM solution. The concentration of the solution is measured at 412 nm using an extinction coefficient of 36 mM^−1cm^−1. Test peptides were dissolved at 1 mg/mL in 25 mM sodium acetate buffer pH 4.0. 100 μL aliquot of peptide solution and 5 μL aliquot of ThT solution were placed in a clear bottom black fluorescence 96-well plate. 5 replicates of each test samples were placed in zo the same row of the plate. Buffer was placed in control wells for baseline correction. All empty wells were filled with water to prevent evaporation. The plate was sealed with aluminium seal and placed in fluorescence plate reader and incubated for 6 days at 37 ° C. with intermittent orbital shaking at 500 to 750 rpm. The fluorescence intensity was measured every 30 min using excitation at 444 nm and emission at 480 nm. The fibril forming potential of the test peptides was determined by measuring the average time taken to detect an increase in baseline corrected fluorescence intensity.

[3] = molecular target: T2, human calcitonin receptor (hCTR) (Homo sapiens, UniProt P30988); test: cAMP production in 1321N1 cells with stable recombinant expression of human calcitonin receptor (hCTR); type: cell-based; conditions: cAMP, 1321N1 cells, assay buffer with 0.1% BSA; read-out: EC50 (pM) hCTR
T2 construct: expressed in transfected cells
T2 sequence (P30988 25-474): T1 sequence (P30988 25-474)
Summary of the method: as §1

With `CC[C@H](C)[C@H](NC(=O)[C@@H]1CCCN1C(=O)CNC(=O)[C@H](Cc1ccccc1)NC(=O)[C@H](CC(N)=O)NC(=O)[C@H](CC(N)=O)NC(=O)[C@H](CO)NC(=O)[C@H](CO)NC(=O)[C@H](Cc1c[nH]cn1)NC(=O)[C@@H](NC(=O)[C@H](CC(C)C)NC(=O)[C@H](Cc1ccccc1)NC(=O)[C@H](CC(N)=O)NC(=O)[C@H](C)NC(=O)[C@H](CC(C)C)NC(=O)[C@H](CCCNC(=N)N)NC(=O)[C@H](CCC(N)=O)NC(=O)[C@@H](NC(=O)[C@H](C)NC(=O)[C@@H]1CSSC[C@H](NC(=O)[C@@H](N)CCCCNC(=O)CC[C@H](NC(=O)CCCCCCCCCCCCCCCCC(=O)O)C(=O)O)C(=O)N[C@@H](CC(N)=O)C(=O)N[C@@H]([C@@H](C)O)C(=O)N[C@@H](C)C(=O)N[C@@H]([C@@H](C)O)C(=O)N1)[C@@H](C)O)C(C)C)C(=O)N[C@@H](CC(C)C)C(=O)N1CCC[C@@H]1C(=O)N1CCC[C@H]1C(=O)N[C@H](C(=O)N[C@@H](CC(N)=O)C(=O)N[C@H](C(=O)NCC(=O)N[C@@H](CO)C(=O)N[C@@H](CC(N)=O)C(=O)N[C@H](C(=O)N[C@@H](Cc1ccc(O)cc1)C(N)=O)[C@@H](C)O)C(C)C)[C@@H](C)O` [Peptide 104] (H-K([γGlu-C18 diacid])CNTATCATQRLANFLVHSSNNFGPIL[dP]PTNVGSNTY-NH2; disulfide 2-7; N-terminus assumed) as the molecule, how does the “Ratio (selectivity hAMYR vs hCTR, ratio of EC50 values at the two receptors)” value [1] read?
Its value is 23.

What about the EC50 [1] of the same molecule?
The EC50 was 79 pM.

What about the “Time taken to detect increase in fluorescence intensity” value (“Time taken to detect increase” below) [2] of the same molecule?
Its value is <5 h.

And the EC50 [3]?
The EC50 was 1820 pM.

Which results are given for `CC[C@H](C)[C@H](NC(=O)[C@@H]1CCCN1C(=O)CNC(=O)[C@](C)(Cc1ccccc1)NC(=O)[C@H](CC(N)=O)NC(=O)[C@H](CC(N)=O)NC(=O)[C@H](CO)NC(=O)[C@H](CO)NC(=O)[C@H](Cc1c[nH]cn1)NC(=O)[C@@H](NC(=O)[C@H](CC(C)C)NC(=O)[C@H](Cc1ccccc1)NC(=O)[C@H](CC(N)=O)NC(=O)[C@H](C)NC(=O)[C@H](CC(C)C)NC(=O)[C@H](CCCNC(=N)N)NC(=O)[C@H](CCC(N)=O)NC(=O)[C@@H](NC(=O)[C@H](C)NC(=O)[C@@H]1CSSC[C@H](NC(=O)[C@@H](N)CCCCNC(=O)CC[C@H](NC(=O)CC[C@H](NC(=O)CCCCCCCCCCCCCCCCC(=O)O)C(=O)O)C(=O)O)C(=O)N[C@@H](CC(N)=O)C(=O)N[C@@H]([C@@H](C)O)C(=O)N[C@@H](C)C(=O)N[C@@H]([C@@H](C)O)C(=O)N1)[C@@H](C)O)C(C)C)C(=O)N[C@@H](CC(C)C)C(=O)N1CCC[C@H]1C(=O)N1CCC[C@H]1C(=O)N[C@H](C(=O)N[C@@H](CC(N)=O)C(=O)N[C@H](C(=O)NCC(=O)N[C@@H](CO)C(=O)N[C@@H](CC(N)=O)C(=O)N[C@H](C(=O)N[C@@H](Cc1ccc(O)cc1)C(N)=O)[C@@H](C)O)C(C)C)[C@@H](C)O` [Peptide 13, K(γE-γE-C18diacid)[CNTATC]ATQRLANFLVHSSNN(αMePhe)GPILPPTNVGSNTY-amide] (H-K([γGlu-γGlu-C18 diacid])CNTATCATQRLANFLVHSSNN[αMeF]GPILPPTNVGSNTY-NH2; disulfide 2-7; N-terminus assumed)?
Ratio (selectivity hAMYR vs hCTR, ratio of EC50 values at the two receptors) [1]: 10; EC50 [1]: 196 pM; Time taken to detect increase in fluorescence intensity [2]: 25 h; EC50 [3]: 2040 pM

Which “Ratio (selectivity hAMYR vs hCTR, ratio of EC50 values at the two receptors)” value [1] does the source give for `CC[C@H](C)[C@H](NC(=O)[C@@H]1CCCN1C(=O)CNC(=O)[C@H](Cc1ccccc1)NC(=O)[C@H](CC(N)=O)NC(=O)[C@H](CC(N)=O)NC(=O)[C@H](CO)NC(=O)[C@H](CO)NC(=O)[C@H](Cc1c[nH]cn1)NC(=O)[C@@H](NC(=O)[C@H](CC(C)C)NC(=O)[C@H](Cc1ccccc1)NC(=O)[C@H](CC(N)=O)NC(=O)[C@H](C)NC(=O)[C@H](CC(C)C)NC(=O)[C@H](CCCNC(=N)N)NC(=O)[C@H](CCC(N)=O)NC(=O)[C@@H](NC(=O)[C@H](C)NC(=O)[C@@H]1CSSC[C@H](NC(=O)[C@@H](N)CCCCNC(=O)CC[C@H](NC(=O)CCCCCCCCCCCCCCCCC(=O)O)C(=O)O)C(=O)N[C@@H](CC(N)=O)C(=O)N[C@@H]([C@@H](C)O)C(=O)N[C@@H](C)C(=O)N[C@@H]([C@@H](C)O)C(=O)N1)[C@@H](C)O)C(C)C)C(=O)N[C@H](CC(C)C)C(=O)N1CCC[C@H]1C(=O)N1CCC[C@H]1C(=O)N[C@H](C(=O)N[C@@H](CC(N)=O)C(=O)N[C@H](C(=O)NCC(=O)N[C@@H](CO)C(=O)N[C@@H](CC(N)=O)C(=O)N[C@H](C(=O)N[C@@H](Cc1ccc(O)cc1)C(N)=O)[C@@H](C)O)C(C)C)[C@@H](C)O` [Peptide 103, K(γE-C18diacid)[CNTATC]ATQRLANFLVHSSNNFGPI(dL)PPTNVGSNTY-amide] (H-K([γGlu-C18 diacid])CNTATCATQRLANFLVHSSNNFGPI[dL]PPTNVGSNTY-NH2; disulfide 2-7; N-terminus assumed) here?
Its value is 12.

And the EC50 [1]?
The EC50 was 161 pM.

What about the “Time taken to detect increase” value [2] of the same molecule?
The value was <5 h.

What about the EC50 [3] of the same molecule?
Its EC50 is 1880 pM.

For `CC[C@H](C)[C@H](NC(=O)[C@@H]1CCCN1C(=O)CNC(=O)[C@H](Cc1ccccc1)NC(=O)[C@H](CC(N)=O)NC(=O)[C@H](CC(N)=O)NC(=O)[C@H](CO)NC(=O)[C@H](CO)NC(=O)[C@H](Cc1c[nH]cn1)NC(=O)C(C)(C)NC(=O)[C@H](CC(C)C)NC(=O)[C@H](Cc1ccccc1)NC(=O)[C@H](CCN)NC(=O)[C@H](C)NC(=O)[C@H](CC(C)C)NC(=O)[C@H](CCCNC(=N)N)NC(=O)[C@H](CCC(N)=O)NC(=O)[C@@H](NC(=O)[C@H](C)NC(=O)[C@@H]1CSSC[C@H](NC(=O)[C@H](CCCCN)NC(=O)[C@@H](N)CCCCNC(=O)CC[C@H](NC(=O)CCCCCCCCCCCCCCCCC(=O)O)C(=O)O)C(=O)N[C@@H](CC(N)=O)C(=O)N[C@@H]([C@@H](C)O)C(=O)N[C@@H](C)C(=O)N[C@@H]([C@@H](C)O)C(=O)N1)[C@@H](C)O)C(=O)N[C@@H](CC(C)C)C(=O)N1CCC[C@H]1C(=O)N1CCC[C@H]1C(=O)N[C@H](C(=O)N[C@@H](CCC(=O)O)C(=O)N[C@H](C(=O)NCC(=O)N[C@@H](CO)C(=O)N[C@@H](CC(N)=O)C(=O)N[C@H](C(=O)N[C@@H](Cc1ccc(O)cc1)C(N)=O)[C@@H](C)O)C(C)C)[C@@H](C)O` [Peptide 156] (H-K([γGlu-C18 diacid])KCNTATCATQRLA[Dab]FL[Aib]HSSNNFGPILPPTEVGSNTY-NH2; disulfide 3-8), which “Ratio (selectivity hAMYR vs hCTR, ratio of EC50 values at the two receptors)” value [1] is on record?
Its value is 22.3.

And the EC50 [1]?
Its EC50 is 3750 pM.

What about the “Time taken to detect increase” value [2] of the same molecule?
Its value is >144 h.

What about the EC50 [3] of the same molecule?
The EC50 was 83800 pM.
